Reference: PubChem BioAssay AID504738 (National Center for Advancing Translational Sciences (NCATS), 2011)

Tested on: kinetic aqueous solubility, PBS pH 7.4, LC-UV/MS
Assay: Inhibitors of Bloom's syndrome helicase: Aqueous Profiling Assay
Excerpt: Survival of cells and the faithful propagation of the genome depend on elaborate mechanisms of detecting and repairing DNA damage. Treatment of advanced cancer relies on radiation therapy or chemotherapy, which kill cancer cells by causing extensive DNA damage. It is often found, that cancer cells develop resistance to therapy through enhanced activity of DNA repair functions; this has led to an increased interest in developing drugs that interfere with DNA repair, which could sensitize cancer cells to conventional therapy. Bloom syndrome helicase (BLM), is important in resolving abnormal DNA structures formed during replication or homologous recombination. Shutting down the expression of BLM leads to chromosomal instability and higher radiation sensitivity in cultured cells. This bioassay provides profiling data on aqueous kinetic solubility (PBS @ pH 7.4) of one of the lead compounds developed in the APE1 inhibitors project. NIH Chemical Genomics Center [NCGC] NIH Molecular Libraries Probe Production Centers Network [MLPCN] MLSCN Grant: MH087284 PI Name: Dr. Opher Gileadi, Structural Genomics Consortium, University of Oxford, UK
1. 8ul of reference and test compound stock solution were added to 392ul 100mM phosphate buffer (pH 7.4) 2. Sample tubes were shaken for 1 hr (1000 rpm) at room temperature 3. […] Concentration of the supernatant was determined by LC-UV or LC-MS/MS

With `O=C(Nc1ccc(F)c(C(F)(F)F)c1)Nc1nnc(-c2ccncc2)s1` the solubility was 2 µM.
